Experimental data reported in ChEMBL document CHEMBL4043234, “Anticancer efficacy of p-dodecylaminophenol against high-risk and refractory neuroblastoma cells in vitro and in vivo” (Bioorg Med Chem Lett, 2017).
Active and inactive are the calls of the source. The rule behind the calls is not given here.

Assays:
[1] = test system: SK-N-AS; assay: Growth inhibition of human SK-N-AS cells at 4 uM after 24 hrs by MTT assay relative to control; type: functional; details: read-out: GI
[2] = test system: SK-N-AS; assay: Growth inhibition of human SK-N-AS cells at 4 uM after 72 hrs by MTT assay relative to control; type: functional; details: read-out: GI
[3] = test system: SK-N-AS; assay: Growth inhibition of human SK-N-AS cells at 1 uM after 24 hrs by MTT assay relative to control; type: functional; details: read-out: GI
[4] = test system: SK-N-AS; assay: Growth inhibition of human SK-N-AS cells at 1 uM after 72 hrs by MTT assay relative to control; type: functional; details: read-out: GI
[5] = test system: IMR-32; assay: Growth inhibition of human IMR32 cells at 0.1 uM after 24 hrs by MTT assay relative to control; type: functional; details: IMR-32, 24 h, read-out: GI
[6] = test system: IMR-32; assay: Growth inhibition of human IMR32 cells at 0.1 uM after 72 hrs by MTT assay relative to control; type: functional; details: IMR-32, 72 h, read-out: GI
[7] = test system: IMR-32; assay: Growth inhibition of human IMR32 cells at 0.4 uM after 72 hrs by MTT assay relative to control; type: functional; details: IMR-32, 72 h, read-out: GI
[8] = test system: IMR-32; assay: Growth inhibition of human IMR32 cells at 0.01 uM after 72 hrs by MTT assay relative to control; type: functional; details: IMR-32, 72 h, read-out: GI
[9] = test system: SK-N-AS; assay: Cell cycle arrest in human SK-N-AS cells at 4 uM up to 72 hrs by propidium iodide staining based flow cytometry; type: functional
[10] = test system: SK-N-AS; assay: Cell cycle arrest in human SK-N-AS cells assessed as accumulation at sub-G1 phase at 4 uM after 24 hrs by propidium iodide staining based flow cytometry; type: functional
[11] = test system: SK-N-AS; assay: Induction of apoptosis in human SK-N-AS cells assessed as caspase-3 activity at 4 uM after 8 to 24 hrs by CPP32 based colorimetric assay; type: functional, cell-based
[12] = test system: IMR-32; assay: Induction of apoptosis in human IMR32 cells assessed as decrease in Bcl-2 mRNA expression level at 4 uM after 24 hrs by real-time PCR method relative to control; type: functional; set-up: scale not given: the % may be the effect or the level left
[13] = test system: IMR-32; assay: Induction of apoptosis in human IMR32 cells assessed as decrease in Bcl-2 mRNA expression level at 4 uM after 8 hrs by real-time PCR method; type: functional, cell-based
[14] = test system: IMR-32; assay: Reduction in N-myc mRNA expression level in human IMR32 cells at 4 uM after 24 hrs by real-time PCR method relative to control; type: functional; set-up: scale not given: the % may be the effect or the level left
[15] = test system: IMR-32; assay: Reduction in N-myc mRNA expression level in human IMR32 cells at 4 uM after 8 hrs by real-time PCR method; type: functional, cell-based

CCCCCCCCCCCC(=O)Nc1ccc(O)cc1
inhibition of growth at 4 µM [1]: 22% | inhibition of growth at 4 µM [2]: 24%

CCCCCCCCCC(=O)Nc1ccc(O)cc1
inhibition of growth at 4 µM [1]: 5% | inhibition of growth at 4 µM [2]: 13%

CC1=C(/C=C/C(C)=C/C=C/C(C)=C/C(=O)O)C(C)(C)CCC1 [TRETINOIN]
inhibition of growth at 1 µM [3]: 0% | inhibition of growth at 1 µM [4]: 3% | inhibition of growth at 0.1 µM [5]: 9% | inhibition of growth at 0.1 µM [6]: 60% | inhibition of growth at 0.4 µM [7]: 65% | inhibition of growth at 0.01 µM [8]: 47% | Activity [9]: Active | Activity [10]: Active | Activity [11]: inactive | Activity [12]: 67% | Activity [13]: inactive | Activity [14]: 13% | Activity [15]: inactive
